Data on two compounds can be found in article PMC5438368, “Characterization of TRPA channels in the starfish Patiria pectinifera: involvement of thermally activated TRPA1 in thermotaxis in marine planktonic larvae” (Scientific Reports, 2017).

Assay [1] has as its target T1, PpTRPA1 (Patiria pectinifera, UniProt A0A1Y1C7R6).
T1 construct: cRNA in Xenopus laevis oocytes; no tag told; PCR primers imply N-terminus MEGDE and C-terminus EHDGSNTA
T1 sequence (A0A1Y1C7R6 1-1200): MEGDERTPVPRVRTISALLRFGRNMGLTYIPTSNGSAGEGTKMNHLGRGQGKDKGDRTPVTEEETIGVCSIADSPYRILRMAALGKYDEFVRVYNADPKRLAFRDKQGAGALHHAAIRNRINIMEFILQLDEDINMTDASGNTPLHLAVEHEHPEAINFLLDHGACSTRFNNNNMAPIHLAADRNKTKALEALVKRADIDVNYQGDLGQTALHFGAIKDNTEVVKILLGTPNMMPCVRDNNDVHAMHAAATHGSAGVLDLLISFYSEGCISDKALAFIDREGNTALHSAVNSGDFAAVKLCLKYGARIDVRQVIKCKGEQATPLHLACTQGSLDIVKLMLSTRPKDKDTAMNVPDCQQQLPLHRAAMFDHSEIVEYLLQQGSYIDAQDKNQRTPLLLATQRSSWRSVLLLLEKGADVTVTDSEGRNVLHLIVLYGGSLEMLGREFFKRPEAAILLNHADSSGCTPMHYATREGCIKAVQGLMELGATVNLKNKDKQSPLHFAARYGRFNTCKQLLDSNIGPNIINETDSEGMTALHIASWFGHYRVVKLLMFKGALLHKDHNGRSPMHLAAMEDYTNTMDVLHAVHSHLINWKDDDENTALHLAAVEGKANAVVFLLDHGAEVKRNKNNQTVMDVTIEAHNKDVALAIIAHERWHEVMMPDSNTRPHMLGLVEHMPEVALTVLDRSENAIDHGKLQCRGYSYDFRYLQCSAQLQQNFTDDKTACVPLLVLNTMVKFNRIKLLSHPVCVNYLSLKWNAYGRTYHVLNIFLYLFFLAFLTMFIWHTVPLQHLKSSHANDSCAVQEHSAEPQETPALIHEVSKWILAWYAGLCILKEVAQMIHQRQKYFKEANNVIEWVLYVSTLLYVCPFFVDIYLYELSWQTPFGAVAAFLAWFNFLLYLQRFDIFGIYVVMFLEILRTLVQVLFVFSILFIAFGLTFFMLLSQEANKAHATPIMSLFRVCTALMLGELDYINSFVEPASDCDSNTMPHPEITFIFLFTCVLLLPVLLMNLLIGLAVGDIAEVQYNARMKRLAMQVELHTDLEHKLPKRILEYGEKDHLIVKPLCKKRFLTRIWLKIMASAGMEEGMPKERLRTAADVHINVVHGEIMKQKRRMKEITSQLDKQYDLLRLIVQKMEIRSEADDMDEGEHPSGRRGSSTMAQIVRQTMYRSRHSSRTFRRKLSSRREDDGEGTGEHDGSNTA
Description: two-electrode voltage clamp, Xenopus laevis oocytes. The class given is cell-based.

For assay [2], the target named is T1, PpTRPA1. The assay is described as above. The class given is cell-based. The settings on record: agonist; ND96 bath, pH 7.4; -60 mV; n = 3; cinnamaldehyde concentration not in text.

A word on the EC50: it is the concentration giving half of the maximal effect. Low values mean an effect from little substance, high ones a need for much substance.

In assay [1], `C=CCN=C=S` [AITC, allyl isothiocyanate] had an EC50 of 117 µM.

Regarding `O=CC=Cc1ccccc1` [CA, cinnamaldehyde], the “two-electrode voltage clamp, Xenopus laevis oocytes” value in assay [2] is “Cinnamaldehyde (CA), another TRPA1 agonist, also evoked inward currents in X. laevis oocytes expressing PpTRPA1”.
